# According to PubChem BioAssay AID2305 (GlaxoSmithKline (GSK), 2010):
# Test system: P. falciparum 3D7 growth, pLDH absorbance
# Experiment: P. falciparum 3D7 growth inhibition, dose response, strain 3D7 (AID 2305)
row,Compound,IC50 [nM]
1,Cc1ccc(Cn2c(N3CCC(C(=O)NCc4ccccn4)CC3)nc3ccccc32)cc1,410
2,COc1cccc(C(=O)Nc2ccc(Nc3nc(C)cc(N4CCCCC4)n3)cc2)c1OC,1020
3,Cc1nc(-c2ccc(-c3ccc(C(=O)Nc4ccc(I)c(OCC5CCCN5C)c4)cc3)c(C)c2)no1 (stereo unspecified),30
4,CCOc1ccc2nc(C)cc(NN=Cc3ccccc3[N+](=O)[O-])c2c1,30
5,CC1CCC2(CC1)N=C(N)N=C(N)N2OCc1cc2ccccc2c2ccccc12 (stereo unspecified),240
6,COc1ccccc1-c1ccc(CNC(=O)C(CN2CCN(C)CC2)c2ccccc2)cc1 (stereo unspecified),1260
7,Cc1ccccc1CNc1ccc2nc(N)nc(N)c2c1,170
8,N#Cc1cnc2cc(-c3cnc(CNCCN4CCOCC4)s3)ccc2c1Nc1ccc(Oc2ccccc2)cc1,730
9,CCOc1cc(C(=O)Nc2cccnc2)cc(Br)c1OCCC(C)C,1080
10,Cc1cc(NCCC(=O)NCCOc2ccccc2)nc(NCc2ccccc2C)n1,870
11,Cc1cc(N[C@@H](CC(C)C)C(=O)NC2CCCC2)nc(NCc2ccccc2C)n1,1340
12,Nc1nc(N)c2c(ccc3nn(Cc4ccccc4)cc32)n1,210
13,Cc1c(C(=O)Nc2cc(Sc3ccc(F)cc3)cc([N+](=O)[O-])c2)sc2ncn(Cc3ccccc3F)c(=O)c12,800
14,CCCCN(Cc1cc(Cl)c(OC)c(OC)c1)c1ccc(C(O)(C(F)(F)F)C(F)(F)F)cc1,190
15,O=C(Nc1ccc(Br)cc1)N(CCN1CCOCC1)CC(O)COCc1ccc(Cl)c(Cl)c1 (stereo unspecified),930
16,c1cc(-c2ccc(CN3CCCC3)cc2)cc(-c2nc3ccccc3[nH]2)c1,690
17,O=C(Nc1ccc(-c2nc3ccccc3[nH]2)cc1)c1ccc(S(=O)(=O)N2CCCCC2)cc1,750
18,O=C(N[C@@H](Cc1ccccc1)C(=O)NCCN1CCCCC1)c1ccc(O)c(-c2ccc(Cl)c(Cl)c2)c1,1520
19,c1cc(CN2CCN(CCN3CCOCC3)CC2)cc(-c2csc(-c3nc4ccccc4[nH]3)c2)c1,450
20,COc1cccc(-n2ncc3c(N/N=C/c4ccc(CN(C)CCN(C)C)cc4)ncnc32)c1,890
21,Cc1cccc(-n2nc(C)c3c2NC(=O)CC3C(=O)c2ccc(Cl)s2)c1 (stereo unspecified),470
22,COc1ccc2oc(=O)c(C#N)c(O)c2c1,210
23,CN(C)Cc1cccc(-c2cc3c(-c4cnn(C)c4)c(Cl)cnc3[nH]2)c1,910
24,Cc1cc(NC(=O)Nc2ccc3nccc(N4CCN(C)CC4)c3c2)ccc1Br,90

row,Compound,IC50 [nM]
1,Cc1nc(Nc2ccncc2)cc(-c2ccncc2)n1,730
2,O=C(NCCCN1CCC(N2CCCCC2)CC1)c1ccc(N2CCOc3ccccc32)s1,730
3,Cc1ccc2nc(C)n(C3CCN(C(=O)Cc4ccccc4C)CC3)c2c1,240
4,CN1CCN(c2ccc3nc(-c4ccc5nc(-c6ccc(O)cc6)[nH]c5c4)[nH]c3c2)CC1,120
5,NC(=O)c1cccc(C(=O)Nc2cccc(-c3ccc(-c4nc5ccccc5[nH]4)s3)c2)c1,350
6,O=C1C2C(C(=O)N1c1ccccc1)[C@H]1S[C@@H]2c2c1ccc1ccccc21 (stereo partly specified),770
7,CCOC(=O)c1ccc(Nc2cc(Nc3ccc(C(=O)OCC)cc3)nc(C)n2)cc1,910
8,COc1ccc2ncc(F)c(CCN3CC[C@@H](CNCc4cc(C)c5c(c4)OCCO5)C3)c2n1,890
9,NC(=O)c1ccc(NCC(=O)Nc2cccc(-c3cccc(-c4nc5ccc(F)cc5[nH]4)c3)c2)cc1,870
10,CN(C)CCNC(=O)c1ccc(-c2ccc3c(Nc4ccccc4)c(C(N)=O)cnc3c2)cc1,730
11,CC(C)n1ncc2c(C(=O)N3CCCc4ccccc43)cc(-c3ccccc3)nc21,600
12,O=C(O[C@H]1CN[C@H](C#Cc2cc3c(Nc4ccc(OCc5cccc(F)c5)c(Cl)c4)ncnc3s2)C1)N1CCCC1,710
13,Cc1cccc(C)c1CNc1ccnc2cc(Br)ccc12,170
14,CCOC(=O)CCCCOc1c(OC)cc(Cc2cnc(N)nc2N)cc1OC,30
15,O=C(Cc1ccc(Nc2nccc(Nc3cccc4[nH]ncc34)n2)cc1)Nc1ccc(C(F)(F)F)cc1,890
16,COc1ccc(Nc2nc(NN=Cc3cc(Br)ccc3O)nc(Nc3ccc([N+](=O)[O-])cc3)n2)cc1,220
17,COC(=O)c1cccc(CNCc2ccc(-c3ccc(-c4nc5ccc(C(F)(F)F)cc5[nH]4)s3)cc2)c1,160
18,Cc1c(-c2cccc(Br)c2)[nH]c2nc(N)nc(N)c12,740
19,NC(N)=Nc1nc(-c2cccc(NC(=O)NCCc3c[nH]c4ccc(OCc5ccccc5)cc34)c2)cs1,810
20,CC(=O)Nc1ccc(C(=O)Nc2cccc(-c3cccc(-c4nc5ccc(F)cc5[nH]4)c3)c2)cn1,130
21,Cc1ccc(NC(=O)c2ccc(Cl)cc2)cc1-c1ccc(C(=O)Nc2ccncc2)cc1,780
22,COC(=O)c1ccc(CC(C)NCC(O)c2ccc(C(O)CNC(C)Cc3ccc(C(=O)OC)cc3)cc2)cc1 (stereo unspecified),1030
23,Cn1nc(-c2ccc(NC(=O)Nc3cc(C(F)(F)F)ccc3F)cc2)c2cnc(NCCc3cnc[nH]3)nc21,810
24,Cc1ccc2cc(NCCCCCCCCON3C(N)=NC(N)=NC34CCCCC4)ccc2n1,160

row,Compound,IC50 [nM]
1,Cc1cc(N[C@@H](Cc2ccccc2)C(=O)NCc2cccc(F)c2)nc(NCc2ccccc2C)n1,980
2,Cc1ccc2c(Cl)c(C(=O)N3CC(C)OC(C)C3)sc2c1 (stereo unspecified),180
3,COc1ccc2ncc(C#N)c(CCN3CCC(NCc4cnc5c(c4)OCCO5)CC3)c2n1,600
4,CN1CCC(Oc2ccc(CN3CC[C@H](NC(=O)c4ccc(Cl)c(F)c4)C3)c3ccccc23)C1 (stereo partly specified),740
5,C[C@H](Cc1ccc(OCCCOc2ccc(C[C@@H](C)NC[C@H](O)c3cccc(Cl)c3)cc2)cc1)NC[C@H](O)c1cccc(Cl)c1,780
6,Cc1[nH]c(C)c(-c2ccc(-c3cc(C(F)(F)F)cc(C(F)(F)F)c3)nc2)c(=O)c1Br,80
7,Cc1nc2ccc3ccc(CNc4ccc5c(c4)CN([C@H](CCC(=O)O)C(=O)O)C5=O)cc3c2c(=O)[nH]1,860
8,COc1ccc2nccc([C@@H](O)CN3CC[C@H](NCc4nc5c(cc4Cl)OCC(=O)N5)[C@H](F)C3)c2c1,1320
9,CCOC(=O)NC1=NC(C)(C)N(OCc2ccc(Cl)c(Cl)c2)C(NC(=O)OCC)=N1,280
10,CN(C)c1cccc2c1nc(-c1ccc3c(c1)CCO3)n2CCNCc1ccccc1,730
11,Cc1nc2ccc3ccc(CNc4ccc(C#N)cc4)cc3c2c(=O)[nH]1,1440
12,CCOc1cccc(C(=O)Nc2cccc(CN3CCCN(Cc4ccc(O)cc4)CC3)c2)c1,820
13,COc1cc2c(cc1COc1ccccc1)CCN1Cc3cc(OC)c(OC)cc3CC21 (stereo unspecified),150
14,COc1ccc(NC(=O)NC2CCN(CCCOc3ccnc4cc(Cl)ccc34)C2)cc1OC (stereo unspecified),790
15,CN(C)CCOc1cc(NC(=O)Nc2ccc(-c3ccncc3)c(Cl)c2)ccc1I,140
16,Cc1ncc(CN2CCC(C(=O)Nc3ccc(-c4nc5ccccc5o4)cc3)CC2)s1,390
17,CN1CCC(C(=O)Nc2ccc(-c3ccc(-c4nc5ccccc5[nH]4)cc3)cc2)CC1,980
18,CC(C)(CNCCOc1ccc(Cl)cc1)c1nc(-c2ccc(Cl)c(O)c2)c(-c2ccnc(N)n2)[nH]1,830
19,Cc1ccccc1Nc1nc(NCCCO)c2ccccc2n1,410
20,CC(=O)Nc1ccc(C(=O)Nc2ccc(-c3cccc(-c4nc5ccc(C(F)(F)F)cc5[nH]4)c3)cc2)cn1,110
21,CN(C)CCCNCc1ccc(-c2ccc(CNCCc3ccccc3)cc2)cc1,990
22,NC(=NC1CC1)c1ccc2nc(CCCCCc3nc4ccc(C(N)=NC5CC5)cc4[nH]3)[nH]c2c1,930
23,NC(=O)c1cccc(CNCc2ccc(-c3cccc(-c4nc5ccccc5[nH]4)c3)cc2)c1,590
24,CCOC(=O)NCC(=O)Nc1cccc(-c2cccc(-c3nc4c(C)cccc4[nH]3)c2)c1,740

row,Compound,IC50 [nM]
1,CN(C)c1ccc(CN2CCCC(CNC(=O)c3ccc(-c4cccc(C(F)(F)F)c4)s3)C2)cc1 (stereo unspecified),1200
2,COc1cc(C)c(NC(=O)c2cccc3c(=O)c(C)c(-c4ccccc4)oc23)cc1OC,1630
3,Oc1ccc(CCCNc2nc(NCc3cccc4ccccc34)nc(N3CCCNCC3)n2)cc1,990
4,Nc1cc(-c2ccc(-c3cccs3)s2)nc2ccccc12,600
5,Cc1ccc(C2(C)CN(CCCOc3cccc(-c4ccc(C(=O)NC(C)C)cc4)c3)CCO2)cc1 (stereo unspecified),960
6,FC(F)(F)Oc1cccc(CNc2noc(-c3sccc3Br)n2)c1,880
7,FC(F)(F)c1ccc2c(C=Cc3ccncc3)c[nH]c2c1,710
8,Cc1ccc(CN2CCCN(Cc3cccc(NC(=O)c4cc5ccccc5s4)c3)CC2)cc1C,730
9,O=[N+]([O-])c1cccc(NC(=S)N2CCCN(Cc3ccc(F)cc3F)CC2)c1,830
10,CC(C)COc1ccc2ccccc2c1CNCCCCCCNCc1c(OCC(C)C)ccc2ccccc12,700
11,COc1ccc2[nH]cc(C3CCN(Cc4ccc(NC(=O)c5ccc(-c6ccccc6)cc5)cc4)CC3)c2c1,770
12,Cc1cc(N2CCN(CC3CCN(C)CC3)CC2)nc(Nc2ccc(Br)cc2)n1,440
13,Nc1ncc(-c2cn[nH]c2)cc1-c1nc2ccc(F)cc2[nH]1,730
14,CC(C)C(C(=O)n1ncc2c3c(N)nc(N)nc3ccc21)C(C)C,650
15,CN(N=Cc1ccccc1)C(N)=NCCCC#Cc1cccc(CN2CCCC2)c1,1790
16,Cc1ccc2c(C3=CCN(CCCCC4(C)C(=O)Nc5c(F)cccc54)CC3)c(C)[nH]c2c1 (stereo unspecified),270
17,O=C1OC2(CN1CC1CCN(Cc3ccc(-n4ccnc4)cc3)C1)c1ccccc1-c1ccccc12 (stereo unspecified),980
18,CNC(=O)Cc1ccc(C(=O)Nc2cccc(-c3ccc(-c4nc5c(C)cccc5[nH]4)s3)c2)cc1,630
19,N#Cc1cccc(CN2CCCN(c3ccc(NC(=O)c4cccs4)cc3)CC2)c1,810
20,C=C[C@]1(C)C[C@@H](OC(=O)CNC[C@@H](O)CN2C[C@H](c3ccnc4ccc(OC)nc34)OC2=O)[C@]2(C)[C@H](C)CC[C@]3(CCC(=O)[C@H]32)[C@@H](C)[C@@H]1O,950
21,COc1cc(OC)nc(-c2cccc(NC(=O)c3ccc4c(=O)n(CCN5CCCCC5)cnc4c3)c2)n1,740
22,Cc1[nH]c2ccccc2c1CC1CCN(CC2CCN(C(=O)/C=C/c3ccc(Cl)c(Cl)c3)CC2)CC1,950
23,COc1ccc(NC(=O)/C=C/c2ccccc2Cl)cc1OCCN1CCC(NCc2ccccc2)CC1,350
24,COc1ccc(-c2cccc(NC(=O)c3cccc(Cl)c3)c2)cc1CN1CCCN(C)CC1,230
